Experimental data reported in patent publication US12569470B2, “Vasodilator and use thereof” (Bioradical Research Institute Corp., priority 2019, dated 2026).

What was measured:
rat neuroid cells B50 = assay: Cytoprotection against singlet oxygen (Rose Bengal + G-LED), Alamar Blue fluorescence; type: cell-based; conditions: 0, 12.5, 25, 50, or 100 μmol/1, RB 200 nmol/1 + G-LED 5 minutes, negative control being 100, FIG. 3
Experimental: Edaravone, ED2AP and BisEp-C3 were examined for whether they had the function of alleviating neuronopathy. Specifically, singlet oxygen was generated by combining Rose Bengal (RB), which is a sensitizer, with green light (G-LED), and the function of alleviating the cytotoxicity of the generated singlet oxygen was examined with the cellular activity being an indicator.
First, rat neuroid cells B50 were cultured in 12-well dishes at 2×10^5 cells/well (medium: RPMI-1640 medium containing 5% FCS) overnight. After the culturing, the medium of each well was replaced with HBSS (1,000 μl/well; phenol red-free Ca+, Mg+) containing 200 nmol/1 RB and edaravone, ED2AP, or BisEp-C3 having a predetermined concentration (0, 12.5, 25, 50, or 100 μmol/1). The dish was then irradiated with G-LED for 5 minutes to generate singlet oxygen. Thereafter, the medium of each well was replaced with 1,000 μl of HBSS, and Alamar Blue was added. The dish was then allowed to react for about 2 hours in an incubator at 37° C. and 5%CO2. After the reaction, fluorescence intensity (excitation wavelength: λ- 560 nm, fluorescence wavelength: λ-595 nm) was measured with a plate reader (infinite200, Tecan Trading AG). In this experimental system, the higher the cellular activity, the more Alamar Blue is taken up and the higher the fluorescence intensity. As a control, fluorescence intensity was measured in the same manner except that sodium azide (Azide, NaN3) was added instead of the compounds so as to achieve a concentration of 4 mmol/1. As a negative control (NC), fluorescence intensity was measured in the same manner except that RB was not added. The relative value of the fluorescence intensity in the sample to which each compound was added was calculated with the fluorescence intensity of the negative control being 100.

[1] = Water solubility noted at synthesis; type: physicochemical; conditions: noted for the isolated crystal
Experimental: 3.58 g of 3-methyl-1-phenyl-5-pyrazolone (hereinafter also referred to as “edaravone”), 2.59 g of malonaldehyde dianilide hydrochloride, and 20 ml of ethanol were added to a reactor and dissolved. To the obtained solution, 2.04 g of triethylamine and 0.4 ml of water were added and stirred for 1 hour at room temperature (about 25° C.; hereinafter, the same applies). After the stirring, the resultant was further reacted for 1 hour at 50° C. After discharging the obtained reaction solution to 100 ml of 1N hydrochloric acid, the mixture was sufficiently stirred and the precipitate was filtered. The resulting cake was washed with water. The cake was added to 200 ml of an aqueous sodium hydroxide solution having a 1% by weight concentration and completely dissolved by heating with stirring. Next, the dissolved solution was stirred for 3 hours after cooling to room temperature. Then, the liquid containing the obtained precipitate was filtered, and then the cake was washed with water. […] Note that the melting point of ED2AP was 249° C., which was water-soluble.
3 ml of dimethylformamide was added to a reactor and the exterior of the reactor was cooled with ice water. 1.75 g of phosphorus oxychloride was slowly dropped into the reactor (Reaction Solution A). In another reactor, 1.78 g of edaravone was dissolved in 5 ml of dimethylformamide (Reaction Solution B). […]

[2] = NO-eliminating ability by ESR with NO donor NOC-7 and Carboxy-PTIO
Experimental: It was examined whether the vasodilator of the present invention has NO-eliminating ability. Specifically, as to the NO generation reaction, NOC-7 of NO donor was used to examine whether the NO concentration is reduced in the presence of BisEP-C3. First, 20 μl of a BisEp-C3 solution was added to 140 μl of a phosphate buffer solution (pH 7.4) having a concentration of […] so as to achieve a predetermined concentration (0, 25, 50, 100, 200, 400, or 600 μmol/1), and further 20 μl of a spin-trapping agent (100 μmol/1), Carboxy-PTIO(2-(4-Carboxyphenyl)-4, 4, 5, 5-tetramethylimidazoline-1-oxyl-3-oxide, sodium salt, final concentration 10 μmol/1) solution and 20 μl of a NO donor solution (10 mmol/1NOC-7 (1-Hydroxy-2-oxo-3-(N-methyl-3-aminopropyl)-3-methyl-1-triazene, final concentration […])) were added and mixed. The NO donor solution was prepared using a sodium hydroxide solution having a concentration of 0.1 mmol/1. Then, after the mixing, the mixture was incubated at room temperature for 3 minutes, and the obtained reaction solution was measured under the following ESR measurement conditions 2. Then, the proportion of the decrease in the signal intensity was calculated as the NO-eliminating ability with the signal intensity of the sample with no BisEP-C3 (0 μmol/1) being 100%.
ESR Measurement Conditions 2 […]

solubility in water [1] | Structure (SMILES) | relative value of the fluorescence intensity (rat neuroid cells B50) | NO-eliminating ability ([2]; 0, 25, 50, 100, 200, 400, or 600 μmol/1, 3 minutes at room temperature, FIG. 14) | superoxide decrease compared with NO-eliminating ability ([2]; equal concentration, comparison with the superoxide test)
water-soluble | CCN1N=C(C)/C(=C\C=C\c2c(C)nn(CC)c2O)C1=O [BisEp-C3, 2,4-dihydro-4-[3-(1-ethyl-5-hydroxy-3-methyl-1H-pyrazol-4-yl)-2-propen-1-ylidene]-2-ethyl-5-methyl-3H-pyrazol-3-one] | recovered in a concentration-dependent manner | eliminated NO in a concentration-dependent manner | the proportion of the decrease in the production amount of superoxide is larger than the NO-eliminating ability
water-soluble | CC1=NN(c2ccccc2)C(=O)/C1=C/C=C/c1c(C)nn(-c2ccccc2)c1O [ED2AP, 2,4-dihydro-4-[3-(5-hydroxy-3-methyl-1-phenyl-1H-pyrazol-4-yl)-2-propen-1-ylidene]-5-methyl-2-phenyl-3H-pyrazol-3-one] | recovered in a concentration-dependent manner | – | –
